Test results taken from patent US20240391964A1, “COMPOSITIONS AND METHODS FOR THE TREATMENT OF CANCER” (The University of Western Australia, priority 2020, published 2024).

Key:
T11 tumours = assay: T11 allograft in BALB/c mice, intratumoral treatment; format: in vivo; details: day 14 post-inoculation, mean±SEM
Protocol: To investigate the efficacy of the combination of melittin and docetaxel in reducing TNBC growth in vivo, T11 cells were transplanted in BALB/c mice. This allograft model recapitulates highly aggressive, TNBC claudin-low disease in mice with an intact immune system. Three days after the generation of T11 tumours (˜50 mm^3), mice were randomized into four groups (n=12 mice/group) and treated intratumorally with either vehicle, melittin (5 mg/Kg), docetaxel (7 mg/Kg), or a combination of melittin (5 mg/Kg) and docetaxel (7 mg/Kg). Mice were treated every two days from day three, with a total of seven treatments.
The therapeutic effects of melittin and docetaxel were validated in tumour tissues at day 14 post-inoculation of T11 cells by immunohistochemistry and immunofluorescence (FIG. 14A).

T11 cells [1] = assay: Cell viability, combination with docetaxel; format: cell-based, murine; details: T11, 48 hours
Protocol: FIG. 15 presents the results of cell viability assays of T11 breast cancer cells treated with melittin or RGD1-melittin alone and in combination with docetaxel for 48 hours. Representative plots of the combination treatments are presented as mean±SEM.
The murine p53 TNBC cell line T11 was treated with docetaxel in combination with either melittin or RGD1-melittin, and cell viability assays were conducted to determine the combination effect between the treatments (FIG. 15).

[2] = system: p-EGFR, p-Akt, p-p44/42 MAPK in SUM159 cells; assay: Immunoblotting of RTK signalling, SUM159; format: cell-based, human
[3] = system: p-HER2, p-EGFR, p-p44/42 MAPK, p-Akt in SKBR3 cells; assay: Immunoblotting of RTK signalling, SKBR3; format: cell-based, human; details: SKBR3, EGF exposed, IC50, from 5 minutes onwards
SUM159 cells [4] = assay: Annexin V flow cytometry; format: cell-based, human; details: IC50 concentration, 60 minutes, mean±SEM
Protocol: To quantify the apoptotic, necrotic or dead cell populations after treatment, flow cytometry for the detection of Annexin V (an early marker of apoptosis) was performed.

SUM159 cells [5] = system: SUM159 cells
Protocol: FIG. 5C presents cell viability assays of human dermal fibroblasts (HDFa) and SUM159 treated with melittin (top) and RGD1-melittin (bottom) for 24 hours.
(§2) To assess anticancer efficacy and selectivity, both venom from European honeybees collected in Perth, Australia and melittin peptide were evaluated in dose-response assays in a panel of cell lines representative of the intrinsic breast cancer subtypes and in non-transformed cells.

[6] = system: human TNBC and HER2-enriched breast cancer cells; assay: Cell viability dose-response assay, TNBC and HER2-enriched panel; format: cell-based; details: range over human TNBC and HER2-enriched breast cancer cells
Protocol: as §2
Data are presented as mean±SEM in ng/μL or μM (to two decimal places). Experiments were performed in biological triplicate.

T11 cells [7] = assay: Cell viability, combination with omomyc; format: cell-based, murine; details: T11, 24 hours
Protocol: FIG. 16 presents the results of cell viability assays of T11 breast cancer cells treated with melittin or RGD1-melittin alone and in combination with omomyc for 24 hours. Representative plots of the combination treatments are presented as mean±SEM.
The murine p53 TNBC cell line T11 was treated with omomyc in combination with either melittin or RGD1-melittin, and cell viability assays were conducted to determine the combination effect between the treatments (FIG. 16).

[8] = system: EGFR and MAPK phosphorylation in MDA-MB-231 cells; assay: Immunoblotting of RTK signalling, MDA-MB-231; format: cell-based, human; details: MDA-MB-231, EGF treatment
Protocol: To characterize the effects on signaling pathways in another TNBC model, immunoblotting was conducted on MDA-MB-231 cells, in which EGF treatment phosphorylated EGFR and induced EGFR expression (FIG. 8C). […] Other growth factor receptors such as VEGFR1 may mediate the activation of these pathways.

[9] = system: JAK/STAT pathway in SUM159 cells; assay: Western blot of JAK/STAT pathway; format: cell-based, human; details: 60-minute treatment
SUM159 cells [10] = assay: Cleaved caspase-3 immunoblot; format: cell-based, human
[11] = system: HDFa, SKBR3 and SUM159 cells; assay: Cell viability kinetics over one hour; format: cell-based, human; details: IC50 concentrations
COV362 cells = format: cell-based; details: COV362, 24 h
Protocol: (§1) The OVCAR3 and COV362 ovarian cancer cell lines were treated with active RGD1-melittin and mutant RGD1-melittin (DEDE-RGD1-melittin). The COV362 cells were cultured in DMEM low glucose medium supplemented with 10% FBS. The OVCAR3 cells were grown in RPMI medium supplemented with 20% FBS. Cells were seeded overnight at a density of 5000 cells/p96-well plate and treated with active RGD1-melittin and mutant RGD1-melittin (RGD1-DEDE melittin), for 24 h at concentrations up to 20 µM. After treatments, cell viability was assessed using the CellTiter-Glo® assay according to the manufacturer's protocol (Promega; NSW, Australia). Luminescence signals were measured using the EnVision Multilabel Plate Reader (PerkinsElmer Inc.; Waltham, MA, USA). IC50s were calculated and transformed 95% confidence intervals provided by GraphPad Prism 6 software analysis (GraphPad Software Inc., San Diego, CA, USA).

OVCAR3 cells = format: cell-based; details: OVCAR3, 24 h
Protocol: as §1

SMILES	PD-L1 expression in tumours (T11 tumours)	tumour cell proliferation (Ki-67 expression) (T11 tumours)	combination effect with docetaxel on cell viability (T11 cells [1])	p-EGFR (Tyr1068) ([2]; SUM159, 10-20 minutes)	p-p44/42 MAPK (Thr202/Tyr204) ([2]; SUM159, 10-20 minutes)	p-Akt (Ser473 and Thr308) ([2]; SUM159, melittin all time points, venom 10-20 minutes)	p-HER2 (Tyr1248), p-EGFR (Tyr1068), p-p44/42 MAPK (Thr202/Tyr204), p-Akt (Ser473 and Thr308) [3]	late apoptotic/necrotic cells (SUM159 cells [4])	ratio of the IC50s of HDFa/SUM159 (SUM159 cells [5]; 24 hours, mean±SEM)	half-maximal inhibitory concentration (IC50) (SUM159 cells [5]; TNBC SUM159)	IC50 [6]	combination effect with omomyc on cell viability (T11 cells [7])	phosphorylation of EGFR and MAPK [8]	effects on JAK/STAT pathway inhibitors [9]	induction of apoptosis (cleaved caspase-3) (SUM159 cells [10]; 24 hours)	induction of cleaved caspase-3 (apoptosis) (SUM159 cells [10]; IC50 concentration, 18 and 24 hours)	cell viability over up to one hour [11]	IC50 (COV362 cells)	IC50 (OVCAR3 cells)
CC(=O)O[C@@]12CO[C@@H]1C[C@H](O)[C@@]1(C)C(=O)[C@H](O)C3=C(C)[C@@H](OC(=O)[C@H](O)[C@@H](NC(=O)OC(C)(C)C)c4ccccc4)C[C@@](O)([C@@H](OC(=O)c4ccccc4)[C@H]21)C3(C)C [docetaxel]	84.3±0.6%	21.0±1.3%	–	–	–	–	–	–	–	–	–	–	–	–	–	–	–	–	–
CC[C@H](C)[C@H](NC(=O)CN)C(=O)NCC(=O)N[C@@H](C)C(=O)N[C@H](C(=O)N[C@@H](CC(C)C)C(=O)N[C@@H](CCCCN)C(=O)N[C@H](C(=O)N[C@@H](CC(C)C)C(=O)N[C@H](C(=O)N[C@H](C(=O)NCC(=O)N[C@@H](CC(C)C)C(=O)N1CCC[C@H]1C(=O)N[C@@H](C)C(=O)N[C@@H](CC(C)C)C(=O)N[C@H](C(=O)N[C@@H](CO)C(=O)N[C@@H](Cc1c[nH]c2ccccc12)C(=O)N[C@H](C(=O)N[C@@H](CCCCN)C(=O)N[C@@H](CCCNC(=N)N)C(=O)N[C@@H](CCCCN)C(=O)N[C@@H](CCCNC(=N)N)C(=O)N[C@@H](CCC(N)=O)C(=O)N[C@@H](CCC(N)=O)C(N)=O)[C@@H](C)CC)[C@@H](C)CC)[C@@H](C)O)[C@@H](C)O)C(C)C)C(C)C [melittin]	52.9±2.4%	31.7±1.3%	beneficial effect when combined with docetaxel	strongly down-regulated	upregulated	suppressed	strongly downregulated	23.6±5.7%	1.76±0.04	4.24 µg/mL	0.94 to 1.49 µM	beneficial effect when combined with omomyc	reduced the phosphorylation of EGFR and MAPK	No modulatory effects	confirmed the anticancer activity	higher level of apoptosis than honeybee venom	significantly reduced the viability of both breast cancer cell lines compared to the normal cells from 10 minutes onwards	7.81 µM	18.2 µM
